Patent US20220193042A1, “NITAZOXANIDE AND THIAZOLIDES FOR USE IN THE TREATMENT OF DISEASES ASSOCIATED WITH OXIDATIVE STRESS” (GENFIT, priority 2019, published 2022)

Key:
Nrf2 target genes = test: Enrichment of Nrf2 target genes in hepatic transcriptome (RNAseq), CDAA/c NASH model; assay type: in vivo, C57Bl/6J mice; conditions: NTZ+CDAA/c vs CDAA/c; Nrf2 target genes are 1.3% of whole identified transcriptome
Experimental: In the current study, the preventive effects of NTZ 100 mg/kg/day were assessed in a murine model. 6 week-old male C57Bl/6J mice were fed a control (CSAA) diet (n=8), CDAA+1% cholesterol diet (n=12), or CDAA+1% cholesterol diet supplemented with NTZ 100 mg/kg/day (n=8) for 12 weeks. The food was purchased from Ssniff® company (Soest, Germany). Nitazoxanide (Interchim, Ref #RQ550) was incorporated by Ssniff® into CDAA+1% chol diet in powder form to the required dose.
The body weight and the food intake were monitored twice per week. On the last day of treatment, mice were sacrificed after a 6 h fasting period. The liver was rapidly excised for transcriptomic and histological studies.
Upon measurement of RNA samples concentration by nanodrop, the quality was assessed using bioanalyser. […]
Reads were cleaned using Trimmomatic v.0.36 with the following parameters: SLIDINGWINDOW:5:20 LEADING:30 TRAILING:30 MINLEN:60.Then reads were aligned on the genome reference (Mus musculus GRCm38.90) with rnacocktail using hisat2 v.2.1.0 as aligner with default parameters. […]
To identify differentially expressed genes (DE genes), we used R (version 3.4.3) and the DESEa2 library (v. 1.18.1). […] Briefly, the count matrix produced by FeatureCounts was analyzed by the DESeqDataSetFromMatrixO function followed by the DEseq( ) function from the DESeq2 library. […]

Nrf2-ARE signaling = test: ARE Reporter - HepG2 cell line luciferase assay; assay type: cell-based, human; conditions: 1 μM TZ, 18 h exposure, vs vehicle
Experimental: ARE Reporter—Hep G2 cells(BPS Bioscience, Inc., San Diego cat #60513) were cultured following manufacturer's instructions. After thawing (BPS thaw medium 1, cat #60187), cells were cultured in growth-medium (BPS growth medium 1K, cat #79533) and subsequently plated at a density of 40 000 cells par well in a 96-well microplate in 45 μl of assay medium (BPS thaw medium). TZ (Interchim; cat #RP253) & DL-Sulforaphane (Sigma; cat #S4441) were dissolved in DMSO and diluted into assay medium. 5 μl of 10× dilution were added on cells to reach a final concentration of 1 μM and 3 μM for TZ and DL-Sulforaphane (DL-Sulfo) respectively. After 18 h exposure, luciferase activity was determined. 50 μl of One-Step Luciferase assay system (BPS cat #60690) were added per well and after −15 min of rocking at room temperature, luminescence was measured using a luminometer.

Hep G2 cells = test: Intracellular GSH detection (ThiolTracker Violet) in menadione-stressed Hep G2 cells; assay type: cell-based, human; conditions: 1 μM TZ preincubated 1 hour, then 100 μM menadione for 2 hours
Experimental: Tizoxanide (Interchim; cat #RP253) was dissolved in DMF (Sigma; cat #227056). Menadione (Sigma; cat #M2518) and N-Acetylcysteine were dissolved (Sigma; cat #A9165) in water. Hep G2 cells (ECACC) were plated at a density of 20 000 cells par well into a 96-well microplate in 100 μl of DMEM (Gibco; cat #41965-039) supplemented with 1% P/S (Gibco; cat #15140-122), 1% glutamine(Gibco; cat #25030-024).The complete medium contained 10% SVF (Gibco; cat #10270-106). The next day, culture medium was removed and replaced by 100 μL of DMEM (Gibco; cat #31053-028) without Red Phenol and SVF but supplemented with 1% P/S (Gibco; cat #15140-122), 1% glutamine(Gibco; cat #25030-024). The serum deprived HepG2 were preincubated for 1 hour with TZ or N-Acetylcysteine (NAC) then exposed to Menadione (MND) for 2 hours. Compounds were dissolved in their respective vehicles a mentioned above and diluted in the deprived culture medium. […] The cellular level of reduced glutathione was subsequently monitored using the ThiolTracker Violet dye (Invitrogen, cat #T10096). Briefly, cells were washed two times with DPBS (Invitrogen, Cat #14287-080) then incubated for 30 min at 37° with 100 μl of prewarmed ThiolTracker Violet dye solution prepared in DPBS according the supplier 's instructions and fluorescence was measured (Ex:404 nm, Em: 526 nm)

Row | Structure (SMILES) | proportion of Nrf2-regulated genes among all differentially expressed genes (Nrf2 target genes) | ARE-mediated luciferase activity (ARE-mediated transcription) (Nrf2-ARE signaling) | prevention of MND-induced reduction of cellular GSH (Hep G2 cells)
1 | CC(=O)Oc1ccccc1C(=O)Nc1ncc([N+](=O)[O-])s1 [NTZ, [2-[(5-nitro-1,3-thiazol-2-yl)carbamoyl]phenyl]ethanoate] | more than 8% |  | 
2 | O=C(Nc1ncc([N+](=O)[O-])s1)c1ccccc1O [TZ, Tizoxanide] |  | significant increase | totally prevented
